{"source": "ChEMBL document CHEMBL4837257", "about": "“Discovery of the Oxadiazine FRM-024: A Potent CNS-Penetrant Gamma Secretase Modulator” (J Med Chem, 2021)", "key": {"Mus musculus": {"system": "Mus musculus", "assay": "In vivo modulation of gamma secretase in mouse assessed as reduction in Abeta42 levels in brain at 30 mg/kg, po measured after 6 hrs relative to control", "format": "functional", "parameters": "scale not given: the % may be the effect or the level left"}, "[1]": {"target": "D(2) dopamine receptor (Homo sapiens) (UniProt P14416)", "sequence (P14416 whole entry)": "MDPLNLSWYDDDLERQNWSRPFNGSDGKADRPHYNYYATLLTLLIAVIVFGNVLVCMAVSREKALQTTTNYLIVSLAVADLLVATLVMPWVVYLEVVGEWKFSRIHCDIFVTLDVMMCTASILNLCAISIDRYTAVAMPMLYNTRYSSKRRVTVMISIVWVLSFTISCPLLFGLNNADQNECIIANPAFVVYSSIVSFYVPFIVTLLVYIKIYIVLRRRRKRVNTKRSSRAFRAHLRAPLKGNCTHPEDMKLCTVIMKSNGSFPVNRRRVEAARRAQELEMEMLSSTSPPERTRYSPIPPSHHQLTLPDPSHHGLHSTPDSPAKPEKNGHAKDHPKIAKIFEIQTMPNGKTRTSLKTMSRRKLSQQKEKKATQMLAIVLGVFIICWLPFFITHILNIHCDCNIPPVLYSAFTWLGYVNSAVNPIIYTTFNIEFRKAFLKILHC", "assay": "Inhibition of dopamine 2-like receptor (unknown origin) at 10 uM relative to control"}, "Rattus norvegicus [2]": {"system": "Rattus norvegicus", "assay": "In vivo modulation of gamma secretase in rat assessed as reduction in Abeta40 levels in CSF by measuring AUC(0 to 24 hrs) at 30 mg/kg, po by ELISA", "format": "functional, Cerebrospinal fluid", "parameters": "scale not given: the % may be the effect or the level left"}, "[3]": {"assay": "Toxicity in guinea pig assessed as effect on repolarization in heart by Langendorff test", "format": "tissue-based, Cavia porcellus", "settings": "in vivo"}, "[4]": {"assay": "AUClast in dog at 10 mg/kg, po", "format": "ADME, organism-based, Canis lupus familiaris", "parameters": "route oral, time 0 - last, dose 10 mg/kg", "settings": "in vivo"}, "[5]": {"assay": "Clearance in rat blood relative to hepatic blood flow", "format": "ADME, tissue-based"}, "[6]": {"assay": "Toxicity in guinea pig assessed as effect on inotropy and lusitropy in heart by Langendorff test", "format": "tissue-based, Cavia porcellus", "settings": "in vivo"}, "[7]": {"assay": "Half life in dog at 0.5 mg/kg, iv", "format": "ADME, organism-based, Canis lupus familiaris", "settings": "in vivo"}, "[8]": {"assay": "Drug metabolism in human hepatocytes assessed as mono and di-oxidative metabolites formation after 4 hrs", "format": "ADME, cell-based, Hepatocyte"}, "[9]": {"target": "Vasopressin V1a receptor (Homo sapiens) (UniProt P37288)", "sequence (P37288 whole entry, looked up)": "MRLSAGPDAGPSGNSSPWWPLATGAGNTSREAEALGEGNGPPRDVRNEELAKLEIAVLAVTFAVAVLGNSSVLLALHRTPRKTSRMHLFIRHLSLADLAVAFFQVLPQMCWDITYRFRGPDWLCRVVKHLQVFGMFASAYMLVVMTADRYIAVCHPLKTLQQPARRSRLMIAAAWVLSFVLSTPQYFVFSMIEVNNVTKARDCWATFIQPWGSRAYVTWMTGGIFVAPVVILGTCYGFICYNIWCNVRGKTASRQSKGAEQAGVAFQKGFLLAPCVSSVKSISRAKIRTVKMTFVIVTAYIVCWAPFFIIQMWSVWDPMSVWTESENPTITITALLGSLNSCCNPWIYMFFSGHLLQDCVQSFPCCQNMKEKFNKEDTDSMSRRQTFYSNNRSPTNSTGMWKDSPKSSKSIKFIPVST", "assay": "Inhibition of vasopressin 1A receptor (unknown origin) at 10 uM relative to control"}, "[10]": {"assay": "Half life in rat at 1 mg/kg, iv", "format": "ADME, organism-based", "settings": "in vivo"}, "Rattus norvegicus [11]": {"system": "Rattus norvegicus", "assay": "In vivo modulation of gamma secretase in rat assessed as reduction in Abeta42 levels in brain at 30 mg/kg, po measured after 6 hrs by ELISA relative to control", "format": "functional", "parameters": "scale not given: the % may be the effect or the level left"}, "[12]": {"assay": "Toxicity in rat assessed as effect on left ventricular filling pressures by telemetry", "settings": "in vivo"}, "Cytochrome P450 1A2 [13]": {"target": "T1, Cytochrome P450 1A2 (Homo sapiens, UniProt P05177)", "T1 sequence (P05177 whole entry)": "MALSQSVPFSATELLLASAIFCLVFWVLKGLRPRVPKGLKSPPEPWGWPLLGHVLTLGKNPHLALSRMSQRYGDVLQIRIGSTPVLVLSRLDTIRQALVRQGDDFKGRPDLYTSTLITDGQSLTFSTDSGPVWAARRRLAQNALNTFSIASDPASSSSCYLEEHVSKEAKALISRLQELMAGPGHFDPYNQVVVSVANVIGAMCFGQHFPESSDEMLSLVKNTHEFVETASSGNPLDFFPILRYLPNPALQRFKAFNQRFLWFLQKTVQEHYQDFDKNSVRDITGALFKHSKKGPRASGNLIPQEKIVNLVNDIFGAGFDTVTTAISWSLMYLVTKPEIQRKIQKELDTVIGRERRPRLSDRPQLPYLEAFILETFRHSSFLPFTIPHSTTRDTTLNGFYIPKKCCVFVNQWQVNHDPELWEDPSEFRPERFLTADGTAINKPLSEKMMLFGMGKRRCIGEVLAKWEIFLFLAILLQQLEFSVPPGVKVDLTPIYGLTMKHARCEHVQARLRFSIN", "assay": "Inhibition of CYP1A2 (unknown origin)", "format": "ADME"}, "[14]": {"assay": "In vivo modulation of gamma secretase in nonhuman primate assessed as reduction in Abeta42 levels in CSF at 30 mg/kg, po measured after 12 hrs by ELISA relative to control", "format": "functional, Primates, Cerebrospinal fluid", "parameters": "scale not given: the % may be the effect or the level left"}, "[15]": {"assay": "Bioavailability in nonhuman primate at 1 mg/kg, iv", "format": "ADME, organism-based", "settings": "primates, in vivo"}, "[16]": {"assay": "AUClast in rat at 3 mg/kg, po", "format": "ADME, organism-based", "parameters": "time 0 - last, route oral, dose 3 mg/kg", "settings": "in vivo"}, "[17]": {"assay": "Bioavailability in dog at 0.5 mg/kg, iv", "format": "ADME, organism-based, Canis lupus familiaris", "settings": "in vivo"}, "[18]": {"assay": "Drug metabolism in dog hepatocytes assessed as mono and di-oxidative metabolites formation after 4 hrs", "format": "ADME, cell-based, Canis lupus familiaris, Hepatocyte"}, "[19]": {"assay": "Half life in nonhuman primate at 1 mg/kg, iv", "format": "ADME, organism-based", "settings": "primates, in vivo"}, "[20]": {"assay": "Cmax in nonhuman primate at 10 mg/kg, po", "format": "ADME, organism-based", "parameters": "route oral, dose 10 mg/kg", "settings": "primates, in vivo"}, "[21]": {"assay": "Toxicity in rat assessed as effect on cardiac output by telemetry", "settings": "in vivo"}, "[22]": {"target": "Prostaglandin G/H synthase 1 (Homo sapiens) (UniProt P23219)", "sequence (P23219 whole entry)": "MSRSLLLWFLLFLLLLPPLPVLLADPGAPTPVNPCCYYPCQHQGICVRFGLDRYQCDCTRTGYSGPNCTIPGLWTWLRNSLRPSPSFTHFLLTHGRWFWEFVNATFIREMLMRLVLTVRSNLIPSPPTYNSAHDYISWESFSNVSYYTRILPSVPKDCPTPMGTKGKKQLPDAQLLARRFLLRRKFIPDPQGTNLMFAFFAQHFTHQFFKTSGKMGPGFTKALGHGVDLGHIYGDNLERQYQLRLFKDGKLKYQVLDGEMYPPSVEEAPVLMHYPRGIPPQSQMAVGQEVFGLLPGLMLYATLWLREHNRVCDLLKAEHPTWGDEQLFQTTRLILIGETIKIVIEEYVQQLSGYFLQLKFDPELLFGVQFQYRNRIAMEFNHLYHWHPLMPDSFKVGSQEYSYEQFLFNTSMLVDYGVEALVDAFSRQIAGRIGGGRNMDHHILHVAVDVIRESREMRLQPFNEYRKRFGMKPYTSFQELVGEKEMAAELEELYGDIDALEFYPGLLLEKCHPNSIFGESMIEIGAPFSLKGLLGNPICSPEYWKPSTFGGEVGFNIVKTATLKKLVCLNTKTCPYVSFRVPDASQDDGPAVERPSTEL", "assay": "Effect on COX1 activity (unknown origin)"}, "Cytochrome P450 1A2 [23]": {"target": "T1, Cytochrome P450 1A2", "assay": "Inhibition of CYP1A2 in human hepatocytes upto 50 uM incubated for 72 hrs", "format": "ADME, cell-based, Hepatocyte"}, "[24]": {"assay": "Toxicity in guinea pig assessed as reduction in heart flow rate by Langendorff test", "format": "tissue-based, Cavia porcellus", "settings": "in vivo"}, "[25]": {"assay": "Clearance in nonhuman primate blood relative to hepatic blood flow", "format": "ADME, tissue-based", "settings": "primates"}, "[26]": {"assay": "Toxicity in rat assessed as effect on arterial pressures by telemetry", "settings": "in vivo"}, "Cytochrome P450 3A4": {"target": "Cytochrome P450 3A4 (Homo sapiens, UniProt P08684)", "sequence (P08684 whole entry)": "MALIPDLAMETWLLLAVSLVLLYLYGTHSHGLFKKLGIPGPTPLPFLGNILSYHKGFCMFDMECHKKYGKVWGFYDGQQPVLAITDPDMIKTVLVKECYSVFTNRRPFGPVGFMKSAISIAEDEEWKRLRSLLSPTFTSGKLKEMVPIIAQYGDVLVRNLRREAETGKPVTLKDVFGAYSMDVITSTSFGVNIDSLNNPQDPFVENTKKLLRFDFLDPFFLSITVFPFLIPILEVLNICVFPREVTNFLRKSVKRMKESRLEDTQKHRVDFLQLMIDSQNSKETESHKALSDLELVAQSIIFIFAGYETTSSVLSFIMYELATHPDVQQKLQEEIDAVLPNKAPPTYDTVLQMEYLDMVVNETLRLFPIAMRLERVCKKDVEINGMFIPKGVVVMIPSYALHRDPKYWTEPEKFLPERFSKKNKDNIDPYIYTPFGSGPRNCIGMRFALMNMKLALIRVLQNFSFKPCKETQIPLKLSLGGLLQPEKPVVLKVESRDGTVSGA", "assay": "Inhibition of CYP3A4 in human hepatocytes upto 50 uM incubated for 72 hrs", "format": "ADME, cell-based, Hepatocyte"}, "[27]": {"assay": "Clearance in dog blood relative to hepatic blood flow", "format": "ADME, tissue-based, Canis lupus familiaris"}, "[28]": {"assay": "Cmax in rat at 3 mg/kg, po", "format": "ADME, organism-based", "parameters": "route oral, dose 3 mg/kg", "settings": "in vivo"}, "Homo sapiens": {"species_on_record": "Homo sapiens", "assay": "Inhibition of adenosine transporter (unknown origin) at 10 uM relative to control"}, "[29]": {"assay": "In vivo modulation of gamma secretase in nonhuman primate assessed as reduction in Abeta40 levels in CSF at 30 mg/kg, po measured after 12 hrs by ELISA relative to control", "format": "functional, Primates, Cerebrospinal fluid", "parameters": "scale not given: the % may be the effect or the level left"}, "[30]": {"assay": "Clearance in dog at 0.5 mg/kg, iv", "format": "ADME, organism-based, Canis lupus familiaris", "settings": "in vivo"}, "[31]": {"assay": "Toxicity in human cardiomyocyte assessed as change in cell health parameters upto 10 uM", "settings": "stem cell-derived cardiomyocyte"}, "[32]": {"assay": "In vivo modulation of gamma secretase in nonhuman primate assessed as reduction in Abeta40 levels in CSF by measuring AUC(0 to 48 hrs) at 30 mg/kg, po by ELISA", "format": "functional, Primates, Cerebrospinal fluid", "parameters": "scale not given: the % may be the effect or the level left"}, "[33]": {"assay": "In vivo modulation of gamma secretase in nonhuman primate assessed as reduction in Abeta42 levels in CSF by measuring AUC(0 to 48 hrs) at 30 mg/kg, po by ELISA", "format": "functional, Primates, Cerebrospinal fluid", "parameters": "scale not given: the % may be the effect or the level left"}, "[34]": {"assay": "Volume of distribution at steady state in nonhuman primate at 1 mg/kg, iv", "format": "ADME, organism-based", "settings": "primates, in vivo, read-out: Vdss"}, "[35]": {"assay": "Genotoxicity in human peripheral blood lymphocytes by micronucleus assay", "format": "cell-based", "settings": "pbl"}, "Cytochrome P450 2B6": {"target": "T2, Cytochrome P450 2B6 (Homo sapiens, UniProt P20813)", "T2 sequence (P20813 whole entry)": "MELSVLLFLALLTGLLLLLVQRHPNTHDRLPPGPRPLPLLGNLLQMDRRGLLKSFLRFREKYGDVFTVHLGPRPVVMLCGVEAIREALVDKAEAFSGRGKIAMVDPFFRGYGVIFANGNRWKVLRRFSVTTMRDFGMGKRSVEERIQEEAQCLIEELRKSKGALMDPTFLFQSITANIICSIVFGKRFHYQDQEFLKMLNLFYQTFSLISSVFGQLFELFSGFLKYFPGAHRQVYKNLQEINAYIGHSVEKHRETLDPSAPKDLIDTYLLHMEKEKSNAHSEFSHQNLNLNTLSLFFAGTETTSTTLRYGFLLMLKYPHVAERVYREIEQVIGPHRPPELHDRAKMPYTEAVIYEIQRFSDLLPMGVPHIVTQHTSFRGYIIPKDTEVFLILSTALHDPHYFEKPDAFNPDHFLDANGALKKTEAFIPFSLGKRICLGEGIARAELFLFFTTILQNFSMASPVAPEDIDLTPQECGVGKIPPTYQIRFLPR", "assay": "Inhibition of CYP2B6 in human hepatocytes upto 50 uM incubated for 72 hrs", "format": "ADME, cell-based, Hepatocyte"}}, "note": "Active and inactive are the calls of the source. No cut-off for these calls is given here.", "data": [{"smiles": "COc1nc(C2=NOC(C3CC3)C(c3ccc(Cl)cc3)N2)ccc1-n1cnc(C)c1", "note": "(centres undefined)", "values": [{"measurement": "Activity", "setting": "Mus musculus", "result": 51, "unit": "%"}, {"measurement": "inhibition", "setting": "[1]", "result": "> 50", "unit": "%"}, {"measurement": "Activity", "setting": "Rattus norvegicus [2]", "result": 48, "unit": "%"}, {"measurement": "Activity", "setting": "[3]", "result": "Non-Toxic"}, {"measurement": "AUC(0-t)", "setting": "[4]", "result": 32.9, "unit": "µM·h"}, {"measurement": "CL", "setting": "[5]", "result": "< 20", "unit": "%"}, {"measurement": "Activity", "setting": "[6]", "result": "Non-Toxic"}, {"measurement": "half-life", "setting": "[7]", "result": 2.9, "unit": "h"}, {"measurement": "Drug metabolism", "setting": "[8]", "result": "Metabolite_Detected"}, {"measurement": "inhibition", "setting": "[9]", "result": "> 50", "unit": "%"}, {"measurement": "half-life", "setting": "[10]", "result": 8.7, "unit": "h"}, {"measurement": "Activity", "setting": "Rattus norvegicus [11]", "result": 56, "unit": "%"}, {"measurement": "Activity", "setting": "[12]", "result": "Non-Toxic"}, {"measurement": "IC50", "setting": "Cytochrome P450 1A2 [13]", "result": "≥ 14", "unit": "µM"}, {"measurement": "Activity", "setting": "[14]", "result": 92, "unit": "%"}, {"measurement": "bioavailability", "setting": "[15]", "result": 113, "unit": "%"}, {"measurement": "AUC(0-t)", "setting": "[16]", "result": 11.6, "unit": "µM·h"}, {"measurement": "bioavailability", "setting": "[17]", "result": 66, "unit": "%"}, {"measurement": "Drug metabolism", "setting": "[18]", "result": "Metabolite_Detected"}, {"measurement": "half-life", "setting": "[19]", "result": 3.9, "unit": "h"}, {"measurement": "Cmax", "setting": "[20]", "result": 6.09, "unit": "µM"}, {"measurement": "Activity", "setting": "[21]", "result": "Non-Toxic"}, {"measurement": "Activity", "setting": "[22]", "result": "inactive"}, {"measurement": "inhibition (INH)", "setting": "Cytochrome P450 1A2 [23]", "result": "Not Active"}, {"measurement": "Activity", "setting": "[24]", "result": "Non-Toxic"}, {"measurement": "CL", "setting": "[25]", "result": "< 20", "unit": "%"}, {"measurement": "Activity", "setting": "[26]", "result": "Non-Toxic"}, {"measurement": "inhibition (INH)", "setting": "Cytochrome P450 3A4", "result": "Not Active"}, {"measurement": "CL", "setting": "[27]", "result": "< 20", "unit": "%"}, {"measurement": "Cmax", "setting": "[28]", "result": 0.754, "unit": "µM"}, {"measurement": "inhibition", "setting": "Homo sapiens", "result": "> 50", "unit": "%"}, {"measurement": "Activity", "setting": "[29]", "result": 57, "unit": "%"}, {"measurement": "clearance", "setting": "[30]", "result": 3.4, "unit": "mL/min/kg"}, {"measurement": "Activity", "setting": "[31]", "result": "Non-Toxic"}, {"measurement": "Activity", "setting": "[32]", "result": 25, "unit": "%"}, {"measurement": "Activity", "setting": "[33]", "result": 63, "unit": "%"}, {"measurement": "Vd", "setting": "[34]", "result": 1.2, "unit": "L/kg"}, {"measurement": "Activity", "setting": "[35]", "result": "Non-Toxic"}, {"measurement": "inhibition (INH)", "setting": "Cytochrome P450 2B6", "result": "Not Active"}]}]}
